In the supplement of paper PMC11061612:

How the values were obtained:
Assay in all cases: combination Emax (second highest fraction inhibited in the dose matrix, 72 h); higher = more inhibition; extreme values may be limits of the assay
[1] = test system: KARPAS-422 (B-Cell Non-Hodgkin's Lymphoma)
In short: (§1)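 Cell lines grown in DMEM/F12 or RPMI with 10% FBS were plated in 1536-well plates and held 24 hours at 37°C, 5% CO2 before 72 hours of exposure to two-drug dose matrices, with DMSO typically at 0.2%. CellTiter-Glo 2.0 luminescence gave viability, which was converted to inhibition. Vehicle wells were set to 0 and blank wells to 1. Combination Emax is the second-highest inhibition in the matrix, and Bliss excess is the observed combination effect minus the expected EA + EB − EA·EB, where EA and EB are the single-agent effects.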

[2] = test system: NCI-H1650 (Lung Adenocarcinoma)
In short: as §1

NCI-H2591 (Mesothelioma) = test system: NCI-H2591 (Mesothelioma)
In short: as §1

[3] = test system: OS-RC-2 (Kidney Carcinoma)
In short: as §1

[4] = test system: SISO (Cervical Carcinoma)
In short: as §1

[5] = test system: ONS-76 (Other Solid Carcinomas)
In short: as §1

U-2-OS (Osteosarcoma) = test system: U-2-OS (Osteosarcoma)
In short: as §1

FU97 (Gastric Carcinoma) = test system: FU97 (Gastric Carcinoma)
In short: as §1

[6] = test system: COLO-320-HSR (Colorectal Carcinoma)
In short: as §1

GI-ME-N (Neuroblastoma) = test system: GI-ME-N (Neuroblastoma)
In short: as §1

[7] = test system: VCaP (Prostate Carcinoma)
In short: as §1

[8] = test system: MDST8 (Colorectal Carcinoma)
In short: as §1

CAS-1 (Glioblastoma) = test system: CAS-1 (Glioblastoma)
In short: as §1

[9] = test system: NCI-H1693 (Lung Adenocarcinoma)
In short: as §1

[10] = test system: CAPAN-2 (Pancreatic Carcinoma)
In short: as §1

[11] = test system: BICR22 (Oral Cavity Carcinoma)
In short: as §1

[12] = test system: NCI-H2141 (Small Cell Lung Carcinoma)
In short: as §1

[13] = test system: NCI-H2066 (Squamous Cell Lung Carcinoma)
In short: as §1

[14] = test system: SK-MG-1 (Low Grade Glioma)
In short: as §1

[15] = test system: TT2609-C02 (Thyroid Gland Carcinoma)
In short: as §1

Row | SMILES | combination Emax [1] | combination Emax [2] | combination Emax (NCI-H2591 (Mesothelioma)) | combination Emax [3] | combination Emax [4] | combination Emax [5] | combination Emax (U-2-OS (Osteosarcoma)) | combination Emax (FU97 (Gastric Carcinoma)) | combination Emax [6] | combination Emax (GI-ME-N (Neuroblastoma)) | combination Emax [7] | combination Emax [8] | combination Emax (CAS-1 (Glioblastoma)) | combination Emax [9] | combination Emax [10] | combination Emax [11] | combination Emax [12] | combination Emax [13] | combination Emax [14] | combination Emax [15]
1 | CN(CCO)CC[C@H](CSc1ccccc1)Nc1ccc(S(=O)(=O)NC(=O)c2ccc(N3CCC([C@@H](O)c4ccccc4-c4ccc(Cl)cc4)CC3)cc2)cc1S(=O)(=O)C(F)(F)F [AZD4320] + CN(C)CCCOc1ccc(-c2ccc3ncc4c(c3c2)n(C2CCOCC2)c(=O)n4C)cn1 [AZD0156] (first compound max 1 µM, 7x7, partner max 1 µM) | 0.957 | 0.0865 | 0.13 | 0.209 | 0.0433 | 0.178 | 0.259 | 0.258 | 0.01 | 0.156 | 0.19 | 0.772 | 0.229 | 0.19 | 0.634 | 0.546 | 0.801 | 0.619 | 0.274 | 0.148
2 | CN(CCO)CC[C@H](CSc1ccccc1)Nc1ccc(S(=O)(=O)NC(=O)c2ccc(N3CCC([C@@H](O)c4ccccc4-c4ccc(Cl)cc4)CC3)cc2)cc1S(=O)(=O)C(F)(F)F [AZD4320] + C[C@@H]1COCCN1C2=NC(=NC(=C2)C3(CC3)[S@](=N)(=O)C)C4=C5C=CNC5=NC=C4 [AZD6738] (first compound max 1 µM, 7x7, partner max 10 µM) | 0.979 | 0.532 | 0.612 | 0.517 | 0.681 | 0.877 | 0.724 | 0.383 | 0.543 | 0.499 | 0.577 | 0.944 | 0.787 | 0.546 | 0.791 | 0.897 | 0.943 | 0.603 | 0.644 | 0.25
3 | CN(CCO)CC[C@H](CSc1ccccc1)Nc1ccc(S(=O)(=O)NC(=O)c2ccc(N3CCC([C@@H](O)c4ccccc4-c4ccc(Cl)cc4)CC3)cc2)cc1S(=O)(=O)C(F)(F)F [AZD4320] + Cn1cnc2c(F)c(Nc3ccc(Br)cc3Cl)c(C(=O)NOCCO)cc21 [Selumetinib] (first compound max 1 µM, 7x7, partner max 3 µM) | 0.875 | 0.318 | 0.242 | 0.347 | 0.304 | 0.628 | 0.516 | 0.544 | 0.198 | 0.345 | 0.208 | 0.955 | 0.575 | 0.459 | 0.772 | 0.721 | 0.893 | 0.71 | 0.441 | 0.546
4 | COc1nnc2ccc(N3CCC(c4ccc(OCCN5CCN(C)C(=O)[C@H]5C)cc4)CC3)nn12 [AZD5153] + C=CCn1c(=O)c2cnc(Nc3ccc(N4CCN(C)CC4)cc3)nc2n1-c1cccc(C(C)(C)O)n1 [AZD1775] (first compound max 1 µM, partner max 1 µM) | 0.888 | 0.477 | 0.448 | 0.486 | 0.65 | 0.601 | 0.635 | 0.792 | 0.661 | 0.393 | 0.767 | 0.461 | 0.658 | 0.565 | 0.328 | 0.489 | 0.659 | 0.475 | 0.618 | 0.622
5 | COc1nnc2ccc(N3CCC(c4ccc(OCCN5CCN(C)C(=O)[C@H]5C)cc4)CC3)nn12 [AZD5153] + CC1(C)CCC(CN2CCN(c3ccc(C(=O)NS(=O)(=O)c4ccc(NCC5CCOCC5)c([N+](=O)[O-])c4)c(Oc4cnc5[nH]ccc5c4)c3)CC2)=C(c2ccc(Cl)cc2)C1 [Venetoclax] (first compound max 1 µM, 7x7, partner max 1 µM) | 0.948 | 0.394 | 0.331 | 0.273 | 0.33 | 0.538 | 0.321 | 0.754 | 0.442 | 0.285 | 0.777 | 0.324 | 0.622 | 0.514 | 0.299 | 0.235 | 0.262 | 0.338 | 0.425 | 0.376
6 | COc1nnc2ccc(N3CCC(c4ccc(OCCN5CCN(C)C(=O)[C@H]5C)cc4)CC3)nn12 [AZD5153] + CCN(CCO)CCCOc1ccc2c(Nc3cc(CC(=O)Nc4cccc(F)c4)[nH]n3)ncnc2c1 [AZD2811] (first compound max 1 µM, 7x7, partner max 1 µM) | 0.676 | 0.415 | 0.429 | 0.304 | 0.486 | 0.56 | 0.405 | 0.766 | 0.503 | 0.341 | 0.789 | 0.466 | 0.646 | 0.46 | 0.296 | 0.463 | 0.297 | 0.344 | 0.566 | 0.492
7 | COc1nnc2ccc(N3CCC(c4ccc(OCCN5CCN(C)C(=O)[C@H]5C)cc4)CC3)nn12 [AZD5153] + C[C@@H]1COCCN1C2=NC(=NC(=C2)C3(CC3)[S@](=N)(=O)C)C4=C5C=CNC5=NC=C4 [AZD6738] (first compound max 1 µM, 7x7, partner max 10 µM) | 0.887 | 0.509 | 0.558 | 0.467 | 0.757 | 0.747 | 0.589 | 0.839 | 0.719 | 0.464 | 0.839 | 0.812 | 0.712 | 0.597 | 0.379 | 0.709 | 0.578 | 0.41 | 0.595 | 0.521
8 | COc1nnc2ccc(N3CCC(c4ccc(OCCN5CCN(C)C(=O)[C@H]5C)cc4)CC3)nn12 [AZD5153] + Cc1c2c(nn1C)CSCc1cc(n(C)n1)CSc1cc(c3ccccc3c1)OCCCc1c(C(=O)O)n(C)c3c-2c(Cl)ccc13 [AZD5991] (first compound max 1 µM, 7x7, partner max 1 µM) | 0.991 | 0.441 | 0.368 | 0.372 | 0.508 | 0.497 | 0.418 | 0.95 | 0.89 | 0.377 | 0.988 | 0.355 | 0.64 | 0.56 | 0.296 | 0.901 | 0.346 | 0.35 | 0.425 | 0.454
9 | COc1nnc2ccc(N3CCC(c4ccc(OCCN5CCN(C)C(=O)[C@H]5C)cc4)CC3)nn12 [AZD5153] + Cn1cnc2c(F)c(Nc3ccc(Br)cc3Cl)c(C(=O)NOCCO)cc21 [Selumetinib] (first compound max 1 µM, 7x7, partner max 10 µM) | 0.68 | 0.441 | 0.629 | 0.343 | 0.452 | 0.697 | 0.628 | 0.701 | 0.333 | 0.349 | 0.797 | 0.826 | 0.599 | 0.569 | 0.452 | 0.564 | 0.276 | 0.345 | 0.467 | 0.652
10 | Cc1c2c(nn1C)CSCc1cc(n(C)n1)CSc1cc(c3ccccc3c1)OCCCc1c(C(=O)O)n(C)c3c-2c(Cl)ccc13 [AZD5991] + C1CN(CCC1(C(=O)N[C@@H](CCO)C2=CC=C(C=C2)Cl)N)C3=NC=NC4=C3C=CN4 [Capivasertib] (first compound max 1 µM, 7x7, partner max 3 µM) | 0.994 | 0.41 | 0.191 | 0.256 | 0.173 | 0.249 | 0.219 | 0.485 | 0.845 | 0.27 | 1 | 0.269 | 0.573 | 0.164 | 0.227 | 0.689 | 0.314 | 0.424 | 0.444 | 0.227
11 | Cc1c2c(nn1C)CSCc1cc(n(C)n1)CSc1cc(c3ccccc3c1)OCCCc1c(C(=O)O)n(C)c3c-2c(Cl)ccc13 [AZD5991] + C=CCn1c(=O)c2cnc(Nc3ccc(N4CCN(C)CC4)cc3)nc2n1-c1cccc(C(C)(C)O)n1 [AZD1775] (first compound max 1 µM, partner max 1 µM) | 0.965 | 0.548 | 0.266 | 0.303 | 0.663 | 0.584 | 0.809 | 0.436 | 0.801 | 0.532 | 0.916 | 0.597 | 0.852 | 0.386 | 0.428 | 0.717 | 0.652 | 0.256 | 0.783 | 0.617
12 | Cc1c2c(nn1C)CSCc1cc(n(C)n1)CSc1cc(c3ccccc3c1)OCCCc1c(C(=O)O)n(C)c3c-2c(Cl)ccc13 [AZD5991] + CC1(C)CCC(CN2CCN(c3ccc(C(=O)NS(=O)(=O)c4ccc(NCC5CCOCC5)c([N+](=O)[O-])c4)c(Oc4cnc5[nH]ccc5c4)c3)CC2)=C(c2ccc(Cl)cc2)C1 [Venetoclax] (first compound max 1 µM, 7x7, partner max 1 µM) | 1 | 0.184 | 0.154 | 0.133 | 0.151 | 0.211 | 0.271 | 0.243 | 0.841 | 0.354 | 0.913 | 0.228 | 0.286 | 0.143 | 0.153 | 0.727 | 0.659 | 0.169 | 0.178 | 0.178
